Columns and labels:
[1] = target: T1, CCKB receptor (Mus musculus, UniProt P56481); test: radioligand binding assay at the CCKB receptor in mouse cortical membranes; conditions: [125I]-CCK8S 200pM, 150 min at 21 ± 3°C; for Ki: read-out: CCKB pKi (converted)
T1 construct: The whole brains from male mice (CD1 22-25g; Charles River) were removed; from tissue; host or cells: cerebral cortex membranes of male CD1 mice
T1 sequence (P56481 1-453): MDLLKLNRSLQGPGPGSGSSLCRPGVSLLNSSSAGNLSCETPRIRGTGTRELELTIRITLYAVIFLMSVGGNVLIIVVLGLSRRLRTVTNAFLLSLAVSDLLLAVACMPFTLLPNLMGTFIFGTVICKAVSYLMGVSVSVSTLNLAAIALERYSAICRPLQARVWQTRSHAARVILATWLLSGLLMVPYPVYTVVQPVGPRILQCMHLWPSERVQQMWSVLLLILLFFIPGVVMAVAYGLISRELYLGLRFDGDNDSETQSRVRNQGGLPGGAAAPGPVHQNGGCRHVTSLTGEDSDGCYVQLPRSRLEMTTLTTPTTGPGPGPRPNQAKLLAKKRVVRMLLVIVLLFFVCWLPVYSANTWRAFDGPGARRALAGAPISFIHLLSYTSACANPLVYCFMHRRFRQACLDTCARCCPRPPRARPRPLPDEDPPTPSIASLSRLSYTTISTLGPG
Description: The compounds of the examples were tested for binding at the CCKB receptor in mouse cortical membranes by means of a radioligand binding assay. The procedure was as follows:
The whole brains from male mice (CD1 22-25g; Charles River) were removed and placed in ice-cold buffer (pH7.2 @ 21 ± 3°C) of the following composition (mM); 10 HEPES, 130 NaCl, 4.7 KCl, 5 MgCl2, 1 EDTA and containing 0.25g.l^-1 bacitracin. The cortex was dissected, weighed and homogenised in 40ml ice-cold buffer using a Teflon-in-glass homogeniser. The homogenate was centrifuged at 39,800g for 20 min at 4°C, the supernatant discarded and the pellet resuspended by homogenisation in fresh buffer. The homogenate was recentrifuged (39,800g; 20 min @ 4°C) and the final pellet was resuspended in HEPES buffer to give a tissue concentration of 2mg.ml^-1(original wet weight).
The assay was terminated by rapid filtration through pre-soaked Whatman GF/B filters using a Brandell Cell harvester. The filters were washed (3 x 3ml) with ice-cold 50mM Tris-HCl (pH7.4 @ 4°C) and bound radioactivity determined by counting (1 min.) in a gamma-counter.

[2] = target: T2, CCKA (Cavia porcellus, UniProt Q63931); test: CCKA binding assay in guinea-pig pancreas membranes; conditions: [125I]-CCK8(S) 200pM; for Ki: containing 0.375 µM PD134,308, read-out: CCKA pKi (converted); for CCKA pKi: containing 0.375 µM PD134,308
T2 construct: The pancreatata were removed from male guinea-pigs (200-300g; Dunkin Hartley); from tissue; host or cells: pancreas membranes of male Dunkin Hartley guinea-pigs
T2 sequence (Q63931 1-430): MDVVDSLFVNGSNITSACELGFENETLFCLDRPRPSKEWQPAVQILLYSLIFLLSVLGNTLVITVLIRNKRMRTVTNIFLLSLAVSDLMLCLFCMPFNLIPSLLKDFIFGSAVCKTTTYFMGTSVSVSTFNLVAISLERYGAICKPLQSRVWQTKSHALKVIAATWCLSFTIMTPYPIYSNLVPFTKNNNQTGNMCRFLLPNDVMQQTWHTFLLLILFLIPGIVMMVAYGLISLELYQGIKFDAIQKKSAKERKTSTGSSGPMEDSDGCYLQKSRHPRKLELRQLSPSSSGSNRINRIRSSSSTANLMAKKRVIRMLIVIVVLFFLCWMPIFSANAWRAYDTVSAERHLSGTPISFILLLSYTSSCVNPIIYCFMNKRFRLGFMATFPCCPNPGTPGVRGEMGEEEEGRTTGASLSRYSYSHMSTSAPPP
Description: The compounds of the examples were also tested in a CCKÅ binding assay as follows:
The pancreatata were removed from male guinea-pigs (200-300g; Dunkin Hartley) and placed in ice-cold HEPES buffer (pH 7.2 @ 21 ± 3° ). The pancreatata were homogenised in 40 ml ice-cold HEPES buffer using a polytron (Brinkmann, PT10, setting 10) 4 x 1 second.
The homogenate was centrifuged at 39,800g for 15 min at 4°. The supernatant was discarded and the pellet re-suspended using a Teflon-in-glass homogeniser in 20 volumes of fresh buffer and recentrifuged as above. The final pellet was re-suspended using a Teflon-in-glass homogeniser to a tissue concentration of 1 mg.ml^-1 (original wet weight), and filtered through 500 µm pore-size Nytex mesh.
The membranes (400µl; containing 0.375 µM PD134,308) are incubated for 150 minutes at 21 ± 3° in a final volume of 0.5ml with HEPES buffer containing [^125I]-CCK8(S) (50µl; 200pM) and competing compound. Total and non-specific binding of [^125I]-CCK8 (S) are defined using 50µl of buffer and 50µl of 100nM L-364,718 respectively. The assay is terminated by rapid filtration through pre-soaked Whatman GF/B filters using a Brandell Cell Harvester. The filters were washed (3 x 3ml) with ice-cold 50mM Tris HCl (pH 7.4 at 4° ) and bound radioactivity is determined by counting (1 min) in a gamma counter.

[3] = target: T3, gastrin (Rattus norvegicus, UniProt P30553); test: gastrin antagonist activity in an immature rat stomach assay; conditions: isolated immature rat stomach, cumulative pentagastrin dose-response curves, acid secretion; read-out: Gastrin pKB (converted)
T3 construct: The stomach was excised and flushed with ca. 1 ml of unbuffered physiological saline solution; from tissue; host or cells: isolated whole stomach of immature rats (33-50 g, ca. 21 days old)
T3 sequence (P30553 1-452): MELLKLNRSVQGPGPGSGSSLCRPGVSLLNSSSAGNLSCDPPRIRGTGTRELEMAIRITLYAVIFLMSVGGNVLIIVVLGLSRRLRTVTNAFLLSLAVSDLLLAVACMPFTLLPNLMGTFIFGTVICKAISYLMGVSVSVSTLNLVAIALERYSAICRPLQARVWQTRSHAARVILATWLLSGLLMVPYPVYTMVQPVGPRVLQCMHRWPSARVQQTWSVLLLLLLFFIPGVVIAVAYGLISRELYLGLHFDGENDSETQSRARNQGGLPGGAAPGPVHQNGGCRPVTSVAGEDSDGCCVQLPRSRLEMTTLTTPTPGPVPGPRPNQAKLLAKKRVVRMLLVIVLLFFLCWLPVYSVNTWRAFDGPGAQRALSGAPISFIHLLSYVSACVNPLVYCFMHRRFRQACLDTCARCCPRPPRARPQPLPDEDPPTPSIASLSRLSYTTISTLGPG
Description: The compounds of the examples were also tested for gastrin antagonist activity in an immature rat stomach assay. The procedure was as follows: The oesophagus of immature rats (33-50 g, ca. 21 days old) was ligated at the level of the cardiac sphincter and the duodenal sphincter was cannulated. The stomach was excised and flushed with ca. 1 ml of unbuffered physiological saline solution. The fundus was punctured and cannulated. A further 4-5 ml of unbuffered solution was flushed through the stomach to ensure the preparation was not leaking. […] The stomach was continuously perfused at a rate of 1 ml min^-1 with unbuffered solution gassed with 100% O2 with the perfusate passing over an internally referenced pH-electrode fixed 12 cm above the stomach. After 120 min of stabilisation the drugs were added directly to the serosal solution in the organ bath and after a further 60 min cumulative pentagastrin dose-response curves were started.

Ki [1] [nM] | Ki [2] [nM] | Kb [3] [nM] | CCKB pKi [1] | CCKA pKi [2] | Compound
1.58 | 2000 | 5.01 |  |  | O=C(O)c1cc(NC(=O)[C@H](Cc2ccccc2)NC(=O)C2C3c4ccccc4C(c4ccccc43)C2C(=O)NCC23CC4CC(CC(C4)C2)C3)cc(C(=O)O)c1 (single isomer, unassigned) [Example 1, cis-7-(1S-(3,5-dicarboxyphenylamino-carbonyl) -2-phenylethylaminocarbonyl)-8-(1-adamantanemethylamino-carbonyl) -2,3,5,6-dibenzobicyclo[2.2.2] octane]
15.8 | 501 | 50.1 |  |  | O=C(O)c1cc(NC(=O)[C@H](Cc2ccccc2)NC(=O)C2C3c4ccccc4C(c4ccccc43)C2C(=O)NCC23CC4CC(CC(C4)C2)C3)cc(C(=O)O)c1 (single isomer, unassigned) [Example 2, cis-7-(1S-(3,5-dicarboxyphenylaminocarbonyl) -2-phenylethylaminocarbonyl)-8-(1-adamantanemethylaminocarbonyl)-2,3,5,6-dibenzobicyclo[2.2.2] octane]
3980 | 1260 |  |  |  | O=C(NCC12CC3CC(CC(C3)C1)C2)C1C2c3ccccc3C(c3ccccc32)C1C(=O)N[C@@H](Cc1ccccc1)C(=O)Nc1ccccc1 (single isomer, unassigned) [Example 22, cis-7-(1S-(phenylaminocarbonyl)-2-phenyl-ethylaminocarbonyl)-8-(1-adamantanemethylaminocarbonyl) -2,3,5,6-dibenzobicyclo[2.2.2]octane]
316 | 1260 |  |  |  | O=C(O)c1cc(NC(=O)[C@H](Cc2ccccc2)NC(=O)C2C3c4ccccc4C(c4ccccc43)C2C(=O)NCc2cccc3ccccc23)cc(C(=O)O)c1 (single isomer, unassigned) [Example 33, cis-7-(1S-(3,5-dicarboxyphenylaminocarbonyl)-2-phenylethylaminocarbonyl)-8-(1-naphthalenemethylaminocarbonyl)-2,3,5,6-dibenzobicyclo[2.2.2]octane]
15.8 | 398 |  |  |  | O=C(O)c1cc(NC(=O)[C@H](Cc2ccccc2)NC(=O)C2C3c4ccccc4C(c4ccccc43)C2C(=O)NCCc2c[nH]c3ccccc23)cc(C(=O)O)c1 (single isomer, unassigned) [Example 50, cis-7-(1S-(3,5-dicarboxyphenylaminocarbonyl) -2-phenylethylaminocarbonyl)-8-(3-indolylethylaminocarbonyl)-2,3,5,6-dibenzobicyclo[2.2.2] octane]
79.4 | 1580 |  |  |  | O=C(O)c1cc(NC(=O)[C@H](Cc2ccccc2)NC(=O)C2C3c4ccccc4C(c4ccccc43)C2C(=O)NCCc2c[nH]c3ccccc23)cc(C(=O)O)c1 (single isomer, unassigned) [Example 51, cis-7-(1S-(3,5-dicarboxyphenylaminocarbonyl) -2-phenylethylaminocarbonyl)-8-(3-indolylethylaminocarbonyl) -2,3,5,6-dibenzobicyclo [2.2.2]octane]
6.31 | 794 |  |  |  | O=C(O)c1cccc(NC(=O)[C@H](Cc2cccs2)NC(=O)C2C3c4ccccc4C(c4ccccc43)C2C(=O)NCC23CC4CC(CC(C4)C2)C3)c1 (single isomer, unassigned) [Example 55, cis-7-(1S-(3-carboxyphenylaminocarbonyl)-2-(2-thiophenyl)ethylaminocarbonyl)-8-(1-adamantanemethylaminocarbonyl)-2,3,5,6-dibenzobicyclo[2.2.2]octane]
25.1 | 1000 |  |  |  | O=C(O)c1cccc(NC(=O)[C@H](Cc2cccs2)NC(=O)C2C3c4ccccc4C(c4ccccc43)C2C(=O)NCC23CC4CC(CC(C4)C2)C3)c1 (single isomer, unassigned) [Example 56]
200 | 1260 |  |  |  | O=C(O)c1ccccc1NC(=O)[C@H](Cc1ccccc1)NC(=O)C1C2c3ccccc3C(c3ccccc32)C1C(=O)NCC12CC3CC(CC(C3)C1)C2 (stereo partly drawn) [Example 45, cis-7-(1S-(2-carboxyphenylaminocarbonyl)-2-phenylethylaminocarbonyl)-8-(1-adamantane-methylaminocarbonyl) -2,3,5,6-dibenzobicyclo[2.2.2]octane]
 |  |  | 7.3 | 6.8 | cis-7-(1S-(3,5-dicarboxyphenylaminocarbonyl) -2-phenylethylaminocarbonyl)-8-(2-thiophenylmethylaminocarbonyl)-2,3,5,6-dibenzobicyclo[2.2.2] octane [Example 52]
 |  |  | 7.5 | 5.8 | cls-7-(1S-(3,5-dicarboxyphenylaminocarbonyl) -2-phenylethylaminocarbonyl) -8-(2-phenylpropylaminocarbonyl) -2,3,5,6-dibenzobicyclo[2.2.2]octane [Example 54]

Source: patent publication EP0719251B1, “BICYCLO (2.2.2) OCTANE DERIVATIVES CHOLECYSTOKININ AND/OR GASTRIN ANTAGONISTS” (JAMES BLACK FOUNDATION LIMITED, priority 1993, dated 1995)
